# Experimental data reported in patent US7989590B2, “Peptides that increase collagen or hyaluronic acid production” (Rohto Pharmaceutical Co., Ltd, priority 2005, dated 2011).
# Read-outs that look alike come from different tables or passages of the source. Where a SMILES comes first, the peptide text is derived from it. Where no end group is shown, it is not given here.
# Tests used:
# [1] = tested on: Fibroblasts derived from human normal skin (CRL-1836; ATCC); assay: Toxicity test: number of viable cells with Cell Counting Kit-8; settings: for Number of Viable Cells (cells): cells after 72 hours of culture
# Excerpt: (§1) For the cells after the culture solution was collected in Example 6, the number of viable cells was counted in the same manner as in Example 4.
# (§2) For the cells after the culture solution was collected in Example 10, the number of viable cells was counted as in the same manner in Example 4.
# (§3) For the cells after the culture solution was collected in Example 14, the number of viable cells was counted in the same manner as in Example 4.
# (§4) For the cells after the culture solution was collected in Example 17, the number of viable cells was counted in the same manner as in Example 4.
# (§5) For the cells after the culture solution was collected in Example 20, the number of viable cells was counted in the same manner as in Example 4.
# [2] = tested on: Fibroblasts derived from human normal skin (CRL-1836; ATCC)
# Excerpt: as §1, §2, §3, §4, §5
molecule,measurement,setting,value
CC(C)C[C@H](N)C(=O)N[C@@H](CCC(=O)O)C(=O)N[C@@H](Cc1c[nH]cn1)C(=O)N[C@@H](C)C(N)=O [C-terminal-Amidated LEHA] (H-LEHA-NH2),Number of Viable Cells (cells),[1]; peptide 10 μg/ml,2.6 × 10^4 cells
"CC(C)C[C@H](N)C(=O)N[C@@H](CC(=O)O)C(=O)N[C@@H](Cc1c[nH]cn1)C(=O)N[C@@H](C)C(=O)O [LDHA, Leu-Asp-His-Ala] (H-LDHA-OH)","number of viable cells, result in words","[1]; 1 μg/ml, versus control",no decrease
same,Number of Viable Cells (cells),[1]; peptide 1 μg/ml,3.3 × 10^4 cells
"CC(C)C[C@H](N)C(=O)N[C@@H](CCC(=O)O)C(=O)N[C@@H](Cc1c[nH]cn1)C(=O)O [LEH, Leu-Glu-His] (H-Leu-Glu-His-OH)","number of viable cells, result in words",[2],no significant decrease
"CC(C)C[C@H](N)C(=O)N[C@@H](CCC(=O)O)C(=O)N[C@@H](Cc1c[nH]cn1)C(=O)N[C@@H](C)C(=O)O [LEHA, Leu-Glu-His-Ala] (H-LEHA-OH)","number of viable cells, result in words","[1]; LEH and LEHA peptides prepared from soy protein, stated in present tense",no significant decrease
same,Number of Viable Cells (cells),[1]; peptide 10 μg/ml,2.9 × 10^4 cells
"CC(C)C[C@H](N)C(=O)N[C@@H](CCC(=O)O)C(=O)N[C@@H](CCCCN)C(=O)N[C@@H](C)C(=O)O [LEKA, Leu-Glu-Lys-Ala] (H-LEKA-OH)","number of viable cells, result in words","[1]; 10 μg/ml, versus control",no decrease
same,Number of Viable Cells (cells),[1]; peptide 10 μg/ml,3.6 × 10^4 cells
CC(=O)N[C@@H](CC(C)C)C(=O)N[C@@H](CCC(=O)O)C(=O)N[C@@H](Cc1c[nH]cn1)C(=O)N[C@@H](C)C(=O)O [N-terminal-Acetylated-LEHA] (Ac-LEHA-OH),Number of Viable Cells (cells),[1]; peptide 10 μg/ml,2.8 × 10^4 cells
"LEHAF [LEHAF, Leu-Glu-His-Ala-Phe]","number of viable cells, result in words","[1]; 1 or 3 μg/ml, versus control",no significant decrease
same,Number of Viable Cells (cells),[1]; peptide 1 μg/ml,3.0 × 10^4 cells
same,Number of Viable Cells (cells),[1]; peptide 3 μg/ml,3.0 × 10^4 cells
